Assay results from ChEMBL document CHEMBL3351683, “Synthesis of lantadene analogs with marked in vitro inhibition of lung adenocarcinoma and TNF-α induced nuclear factor-kappa B (NF-κB) activation” (Bioorg Med Chem Lett, 2014).
Activity calls are given as the source filed them. No cut-off for these calls is given here.

Key:
A549 = test: Cytotoxicity against human A549 cells after 48 hrs by MTT assay; assay type: functional, cell-based; settings: A549, 48 h
[1] = Metabolic stability in 80% human plasma assessed as compound remaining at 5 mg/ml at 120 mins by HPLC analysis; assay type: ADME, cell-free; settings: read-out: Stability
[2] = Stability in simulated gastric fluid at pH 2 assessed as compound remaining measured at 5 mg/ml at 5 hrs by HPLC analysis; assay type: ADME; settings: read-out: Stability
[3] = Stability in simulated gastric fluid at pH 2 assessed as compound remaining measured at 5 mg/ml at 8 hrs by HPLC analysis; assay type: ADME; settings: read-out: Stability
[4] = Stability in simulated gastric fluid at pH 2 assessed as compound remaining measured at 5 mg/ml at 2 hrs by HPLC analysis; assay type: ADME; settings: read-out: Stability
[5] = Metabolic stability in 80% human plasma assessed as compound remaining at 5 mg/ml at 15 mins by HPLC analysis; assay type: ADME, cell-free; settings: read-out: Stability
[6] = Metabolic stability in 80% human plasma assessed as compound remaining at 5 mg/ml at 60 mins by HPLC analysis; assay type: ADME, cell-free; settings: read-out: Stability
[7] = molecular target: T1, Inhibitor of nuclear factor kappa-B kinase subunit beta (Homo sapiens, UniProt O14920); test: Inhibition of phosphorylation of human recombinant Flag-tagged IKKbeta expressed in Sf21 cells after 1 hr by Kinase-Glo luminescent kinase assay
T1 sequence (O14920 whole entry): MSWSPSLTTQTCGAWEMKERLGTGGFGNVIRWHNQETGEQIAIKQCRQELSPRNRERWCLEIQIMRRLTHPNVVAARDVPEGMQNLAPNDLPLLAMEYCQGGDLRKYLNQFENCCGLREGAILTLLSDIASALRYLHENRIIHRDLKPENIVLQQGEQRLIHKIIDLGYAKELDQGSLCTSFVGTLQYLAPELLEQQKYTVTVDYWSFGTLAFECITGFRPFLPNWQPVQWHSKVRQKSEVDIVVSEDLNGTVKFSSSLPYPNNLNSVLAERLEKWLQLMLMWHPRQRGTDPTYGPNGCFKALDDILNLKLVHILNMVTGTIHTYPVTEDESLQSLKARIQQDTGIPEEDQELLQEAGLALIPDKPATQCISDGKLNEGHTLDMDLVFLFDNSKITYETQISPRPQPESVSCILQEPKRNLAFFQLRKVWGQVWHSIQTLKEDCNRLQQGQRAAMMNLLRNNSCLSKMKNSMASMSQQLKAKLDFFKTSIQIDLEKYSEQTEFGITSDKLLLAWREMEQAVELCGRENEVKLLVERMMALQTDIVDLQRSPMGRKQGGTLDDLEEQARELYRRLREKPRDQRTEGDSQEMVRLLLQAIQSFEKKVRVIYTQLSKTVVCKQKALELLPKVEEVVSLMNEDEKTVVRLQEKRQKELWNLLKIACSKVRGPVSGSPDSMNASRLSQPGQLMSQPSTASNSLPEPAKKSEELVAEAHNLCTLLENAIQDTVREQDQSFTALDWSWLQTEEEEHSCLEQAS

[8] = Metabolic stability in 80% human plasma assessed as compound remaining at 5 mg/ml at 30 mins by HPLC analysis; assay type: ADME, cell-free; settings: read-out: Stability
[9] = Stability in simulated gastric fluid at pH 2 assessed as compound remaining measured at 5 mg/ml at 12 hrs by HPLC analysis; assay type: ADME; settings: read-out: Stability
[10] = molecular target: T2, Inhibitor of nuclear factor kappa-B kinase subunit beta (Homo sapiens) (UniProt O14920); settings: A549, 0.5 to 1 uM
T2 sequence (whole entry): T1 sequence (O14920 whole entry)
Description: Inhibition of TNFalpha-induced IKKbeta-mediated IkappaB degradation in human A549 cells compound treated for 8 hrs at 0.5 to 1 uM followed by TNFalpha stimulation measured after 30 mins by Western blot analysis relative to control

CC(C)C(=O)O[C@@H]1CC(C)(C)C[C@H]2C3=CC[C@@H]4[C@@]5(C)CCC(=O)C(C)(C)[C@@H]5CC[C@@]4(C)[C@]3(C)CC[C@@]12C(=O)O
IC50 (A549): > 10000 nM

CC(C)=CC(=O)O[C@@H]1CC(C)(C)C[C@H]2C3=CC[C@@H]4[C@@]5(C)CC[C@H](OC(=O)c6cccc(F)c6)C(C)(C)[C@@H]5CC[C@@]4(C)[C@]3(C)CC[C@@]12C(=O)O
IC50 (A549): 6860 nM

C/C=C(/C)C(=O)O[C@@H]1CC(C)(C)C[C@H]2C3=CC[C@@H]4[C@@]5(C)CCC(=O)C(C)(C)[C@@H]5CC[C@@]4(C)[C@]3(C)CC[C@@]12C(=O)O [LANTADENE A]
IC50 (A549): 2840 nM

CC(C)=CC(=O)O[C@@H]1CC(C)(C)C[C@H]2C3=CC[C@@H]4[C@@]5(C)CCC(=O)C(C)(C)[C@@H]5CC[C@@]4(C)[C@]3(C)CC[C@@]12C(=O)O
IC50 (A549): 1190 nM

C/C=C(/C)C(=O)O[C@@H]1CC(C)(C)C[C@H]2C3=CC[C@@H]4[C@@]5(C)CC[C@H](OC(=O)CCC)C(C)(C)[C@@H]5CC[C@@]4(C)[C@]3(C)CC[C@@]12C(=O)O
IC50 (A549): > 10000 nM

C/C=C(/C)C(=O)O[C@@H]1CC(C)(C)C[C@H]2C3=CC[C@@H]4[C@@]5(C)CC[C@H](OC(=O)c6cccc(F)c6)C(C)(C)[C@@H]5CC[C@@]4(C)[C@]3(C)CC[C@@]12C(=O)O
IC50 (A549): > 10000 nM

CC(C)=CC(=O)O[C@@H]1CC(C)(C)C[C@H]2C3=CC[C@@H]4[C@@]5(C)CC[C@H](OC(=O)c6ccccc6F)C(C)(C)[C@@H]5CC[C@@]4(C)[C@]3(C)CC[C@@]12C(=O)O
IC50 (A549): 1960 nM

C/C=C(/C)C(=O)O[C@@H]1CC(C)(C)C[C@H]2C3=CC[C@@H]4[C@@]5(C)CC[C@H](OC(=O)C(C)C)C(C)(C)[C@@H]5CC[C@@]4(C)[C@]3(C)CC[C@@]12C(=O)O
IC50 (A549): > 10000 nM

C/C=C(/C)C(=O)O[C@@H]1CC(C)(C)C[C@H]2C3=CC[C@@H]4[C@@]5(C)CC[C@H](OC(=O)c6ccc(Cl)cc6)C(C)(C)[C@@H]5CC[C@@]4(C)[C@]3(C)CC[C@@]12C(=O)O
IC50 (A549): 1320 nM

C/C=C(/C)C(=O)O[C@@H]1CC(C)(C)C[C@H]2C3=CC[C@@H]4[C@@]5(C)CC[C@H](OC(=O)c6ccccc6F)C(C)(C)[C@@H]5CC[C@@]4(C)[C@]3(C)CC[C@@]12C(=O)O
IC50 (A549): 2040 nM

CC(C)=CC(=O)O[C@@H]1CC(C)(C)C[C@H]2C3=CC[C@@H]4[C@@]5(C)CC[C@H](OC(=O)C(C)C)C(C)(C)[C@@H]5CC[C@@]4(C)[C@]3(C)CC[C@@]12C(=O)O
IC50 (A549): 2560 nM

C/C=C(/C)C(=O)O[C@@H]1CC(C)(C)C[C@H]2C3=CC[C@@H]4[C@@]5(C)CC[C@H](OC(=O)c6cccc(OC)c6)C(C)(C)[C@@H]5CC[C@@]4(C)[C@]3(C)CC[C@@]12C(=O)O
IC50 (A549): 1840 nM

CC(C)=CC(=O)O[C@@H]1CC(C)(C)C[C@H]2C3=CC[C@@H]4[C@@]5(C)CC[C@H](OC(=O)c6ccc(Cl)cc6)C(C)(C)[C@@H]5CC[C@@]4(C)[C@]3(C)CC[C@@]12C(=O)O
remaining at 2 h, 5 mg/ml [1]: 32.3%
remaining at 5 h, 5 mg/ml [2]: 86.5%
remaining at 8 h, 5 mg/ml [3]: 80.3%
remaining at 2 h, 5 mg/ml [4]: 92.2%
remaining at 0.25 h, 5 mg/ml [5]: 70.2%
IC50 (A549): 1120 nM
remaining at 1 h, 5 mg/ml [6]: 44.3%
IC50 [7]: 1540 nM
remaining at 0.5 h, 5 mg/ml [8]: 52.2%
remaining at 12 h, 5 mg/ml [9]: 72.8%

CC1(C)C[C@@H](O)[C@]2(C(=O)O)CC[C@]3(C)C(=CC[C@@H]4[C@@]5(C)CCC(=O)C(C)(C)[C@@H]5CC[C@]43C)[C@@H]2C1
IC50 (A549): > 10000 nM

COc1cccc(C(=O)O[C@H]2CC[C@]3(C)[C@H]4CC=C5[C@@H]6CC(C)(C)C[C@@H](OC(=O)C=C(C)C)[C@]6(C(=O)O)CC[C@@]5(C)[C@]4(C)CC[C@H]3C2(C)C)c1
remaining at 2 h, 5 mg/ml [1]: 35.3%
remaining at 5 h, 5 mg/ml [2]: 88.2%
remaining at 8 h, 5 mg/ml [3]: 83.3%
remaining at 2 h, 5 mg/ml [4]: 93%
remaining at 0.25 h, 5 mg/ml [5]: 70.4%
IC50 (A549): 980 nM
remaining at 1 h, 5 mg/ml [6]: 46.7%
IC50 [7]: 1360 nM
remaining at 0.5 h, 5 mg/ml [8]: 53.2%
inhibition [10]: Active
remaining at 12 h, 5 mg/ml [9]: 77.2%

CCCC(=O)O[C@@H]1CC(C)(C)C[C@H]2C3=CC[C@@H]4[C@@]5(C)CCC(=O)C(C)(C)[C@@H]5CC[C@@]4(C)[C@]3(C)CC[C@@]12C(=O)O
IC50 (A549): > 10000 nM

CCCC(=O)O[C@H]1CC[C@]2(C)[C@H]3CC=C4[C@@H]5CC(C)(C)C[C@@H](OC(=O)C=C(C)C)[C@]5(C(=O)O)CC[C@@]4(C)[C@]3(C)CC[C@H]2C1(C)C
IC50 (A549): > 10000 nM

CC(C)=CC(=O)O[C@@H]1CC(C)(C)C[C@H]2C3=CC[C@@H]4[C@@]5(C)CC[C@H](O)C(C)(C)[C@@H]5CC[C@@]4(C)[C@]3(C)CC[C@@]12C(=O)O [Reduced Lantadene B]
IC50 (A549): 430 nM
IC50 ([7]; sf21): 4240 nM

C/C=C(/C)C(=O)O[C@@H]1CC(C)(C)C[C@H]2C3=CC[C@@H]4[C@@]5(C)CC[C@H](O)C(C)(C)[C@@H]5CC[C@@]4(C)[C@]3(C)CC[C@@]12C(=O)O [Reduced Lantadene A]
IC50 (A549): 790 nM
IC50 [7]: 2620 nM
